# Measurements reported in patent publication US8921406B2, “5-ring heteroaromatic compounds and their use as binding partners for 5-HT5 receptors” (AbbVie Deutschland GmbH & Co. KG, priority 2005, dated 2014).
# Where a name gives a salt, the structure may show the parent alone.
# Molecular target: T1, h5-HT5A receptor (Homo sapiens, UniProt P47898)
# T1 construct: expressed in transfected cells
# Experiment: h5-HT5A-[3H]5-CT binding assay
# Settings: membranes of HEK293 cells expressing h5-HT5A; 2.5 nM [3H]5-CT; read-out: Binding affinity 5-HT5A (Ki)
# Description: 1. h5-HT5A-[^3H]5-CT Binding Assay
# Membranes of HEK293 cells which permanently express the h5-HT5A receptor gene were incubated in 100 mM tris-HCl buffer (pH 7.7) containing 1 mM EDTA, in the presence of 2.5 nM [^3H]5-CT (total volume 600 μL). The total binding is defined as the binding that is observed when the membranes are incubated in the presence of only the radioligand. The inhibition induced by the compound is determined by incubation of cell membranes in the presence of the radioligand and various concentrations of the compound of interest. Nonspecific binding is defined as the [^3H]5-CT binding obtained by incubation of the membranes, the same as for the total binding, but in the presence of 10 μM methiothepine. Following incubation for 75 min at 30° C., the membrane suspension was filtered through a GF/B-Filter coated with 0.03% PEI, using a Skatron® harvesting system. The residual radioactivity in the filter was quantified by liquid scintillation counting.
# Various concentrations of the test substances were used in both assays, and the Ki or IC50 values were determined.
# T1 sequence (P47898 whole entry): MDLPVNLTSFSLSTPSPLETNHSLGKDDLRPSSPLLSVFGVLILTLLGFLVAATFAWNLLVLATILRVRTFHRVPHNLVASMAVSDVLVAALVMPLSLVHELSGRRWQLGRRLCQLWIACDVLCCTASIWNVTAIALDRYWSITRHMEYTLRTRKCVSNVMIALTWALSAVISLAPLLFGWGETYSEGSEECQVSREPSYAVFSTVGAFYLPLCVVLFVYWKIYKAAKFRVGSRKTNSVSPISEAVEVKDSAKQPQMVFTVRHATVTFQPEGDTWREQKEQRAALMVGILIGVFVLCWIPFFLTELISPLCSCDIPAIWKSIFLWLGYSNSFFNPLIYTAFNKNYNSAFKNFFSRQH
row,SMILES,Ki
1,"COc1ccccc1Cn1cc(-c2ccc(Br)cc2)nc1N [Example 1, 4-(4-Bromophenyl)-1-(2-methoxybenzyl)-1H-imidazole-2-ylamine]",< 0.6 µM
2,"COc1ccccc1Cn1cc(-c2ccc([N+](=O)[O-])cc2)nc1N [Example 2, 1-(2-Methoxybenzyl)-4-(4-nitrophenyl)-1H-imidazole-2-ylamine]",< 0.6 µM
3,"COc1ccccc1Cc1nc(-c2ccccc2)[nH]c1N [Example 3, 5-(2-Methoxybenzyl)-2-phenyl-3H-imidazole-4-ylamine]",< 0.6 µM
4,"COc1ccccc1Cc1cn(-c2ccccc2)nc1N [Example 4, 4-(2-Methoxybenzyl)-1-phenyl-1H-pyrazole-3-ylamine]",> 0.6 µM
5,"COc1ccccc1Cn1nc(-c2ccccc2)nc1N [Example 5, 2-(2-Methoxybenzyl)-5-phenyl-4H-[1,2,4]triazole-3-ylamine]",> 0.6 µM
6,"COc1ccc(-n2cc(Cc3ccccc3OC)c(N)n2)cc1 [Example 6, 4-(2-Methoxybenzyl)-1-(4-methoxyphenyl)-1H-pyrazole-3-ylamine]",> 0.6 µM
7,"COc1ccccc1Cc1cn(-c2ccc(F)cc2)nc1N [Example 7, 1-(4-Fluorophenyl)-4-(2-methoxybenzyl)-1H-pyrazole-3-ylamine]",> 0.6 µM
8,"COc1cccc(OC)c1Cn1cc(-c2ccccc2)nc1N [Example 8, 1-(2,6-Dimethoxybenzyl)-4-phenyl-1H-imidazole-2-ylamine hydrochloride]",< 0.6 µM
9,"COc1ccccc1Cn1cc(-c2ccccc2)nc1NC(C)=O [Example 9, N-[1-(2-Methoxybenzyl)-4-phenyl-1H-imidazole-2-yl]acetamide]",> 0.6 µM
10,"COc1ccccc1Cn1cc(-c2ccccc2)nc1N [Example 10, 1-(2-Methoxybenzyl)-4-phenyl-1H-imidazole-2-ylamine hydrochloride]",< 0.6 µM
11,"COc1ccccc1Cn1cc(C(C)(C)C)nc1N [Example 11, 4-tert-Butyl-1-(2-methoxybenzyl)-1H-imidazole-2-ylamine]",> 0.6 µM
12,"COc1ccccc1Cn1cc(-c2ccc(F)cc2)nc1N [Example 12, 4-(4-Fluorophenyl)-1-(2-methoxybenzyl)-1H-imidazole-2-ylamine]",< 0.6 µM
13,"COc1ccccc1Cn1cc(-c2cccs2)nc1N [Example 13, 1-(2-Methoxybenzyl)-4-thiophene-2-yl-1H-imidazole-2-ylamine]",< 0.6 µM
14,"COc1ccccc1Cn1c(N)nc(-c2ccccc2)c1C [Example 14, 1-(2-Methoxybenzyl)-5-methyl-4-phenyl-1H-imidazole-2-ylamine]",< 0.6 µM
15,"COc1ccccc1Cn1cc(-c2ccco2)nc1N [Example 15, 4-Furan-2-yl-1-(2-methoxybenzyl)-1H-imidazole-2-ylamine hydrochloride]",< 0.6 µM
16,"COc1ccccc1Cn1cc(-c2ccc3ccccc3c2)nc1N [Example 16, 1-(2-Methoxybenzyl)-4-naphthalene-2-yl-1H-imidazole-2-ylamine hydrochloride]",< 0.6 µM
17,"COc1ccccc1Cn1cc(-c2csc3ccccc23)nc1N [Example 17, 4-Benzo[b]thiophene-3-yl-1-(2-methoxybenzyl)-1H-imidazole-2-ylamine hydrochloride]",< 0.6 µM
18,"COc1cccc(OC)c1Cn1cc(-c2ccc(F)cc2)nc1N [Example 18, 1-(2,6-Dimethoxybenzyl)-4-(4-fluorophenyl)-1H-imidazole-2-ylamine]",< 0.6 µM
19,"COc1cccc(OC)c1Cn1cc(-c2cccs2)nc1N [Example 19, 1-(2,6-Dimethoxybenzyl)-4-thiophene-2-yl-1H-imidazole-2-ylamine]",< 0.6 µM
20,"COc1ccccc1Cn1cc(-c2ccsc2)nc1N [Example 20, 1-(2-Methoxybenzyl)-4-thiophene-3-yl-1H-imidazole-2-ylamine hydrochloride]",< 0.6 µM
21,"CCOC(=O)c1cn(Cc2ccccc2OC)c(N)n1 [Example 21, 2-Amino-1-(2-methoxybenzyl)-1H-imidazole-4-carboxylic acid ethyl ester]",> 0.6 µM
22,"COc1ccccc1Cn1cc(-c2ccc(OC(F)(F)F)cc2)nc1N [Example 22, 1-(2-Methoxybenzyl)-4-(4-trifluoromethoxyphenyl)-1H-imidazole-2-ylamine]",< 0.6 µM
23,"COc1cccc(-c2cn(Cc3ccccc3OC)c(N)n2)c1 [Example 23, 1-(2-Methoxybenzyl)-4-(3-methoxyphenyl)-1H-imidazole-2-ylamine]",< 0.6 µM
24,"COc1ccccc1Cn1cc(C23CC4CC(CC(C4)C2)C3)nc1N [Example 24, 4-Adamantane-1-yl-1-(2-methoxybenzyl)-1H-imidazole-2-ylamine]",< 0.6 µM

row,SMILES,Ki
1,"COc1cccc(OC)c1Cn1cc(-c2ccc(C#N)cc2)nc1N [Example 25, 4-[2-Amino-1-(2,6-dimethoxybenzyl)-1H-imidazole-4-yl]benzonitrile hydrochloride]",< 0.6 µM
2,"COc1ccccc1-c1cn(Cc2c(OC)cccc2OC)c(N)n1 [Example 26, 1-(2,6-Dimethoxybenzyl)-4-(2-methoxyphenyl)-1H-imidazole-2-ylamine hydrochloride]",< 0.6 µM
3,"COc1ccccc1Cn1cc(-c2ccc(C)cc2)nc1N [Example 27, 1-(2-Methoxybenzyl)-4-p-tolyl-1H-imidazole-2-ylamine]",< 0.6 µM
4,"COc1cccc(Cl)c1Cn1cc(-c2ccsc2)nc1N [Example 28, 1-(2-Chloro-6-methoxybenzyl)-4-thiophene-3-yl-1H-imidazole-2-ylamine]",< 0.6 µM
5,"COc1cccc(Cl)c1Cn1cc(-c2ccc(OC(F)(F)F)cc2)nc1N [Example 29, 1-(2-Chloro-6-methoxybenzyl)-4-(4-trifluoromethoxyphenyl)-1H-imidazole-2-ylamine]",< 0.6 µM
6,"CCOC(=O)c1cc(-c2cn(Cc3ccccc3OC)c(N)n2)on1 [Example 30, 5-[2-Amino-1-(2-methoxybenzyl)-1H-imidazole-4-yl]isoxazole-3-carboxylic acid ethyl ester]",> 0.6 µM
7,"COc1cccc(F)c1Cn1cc(-c2ccsc2)nc1N [Example 31, 1-(2-Fluoro-6-methoxybenzyl)-4-thiophene-3-yl-1H-imidazole-2-ylamine]",< 0.6 µM
8,"COc1ccc(-c2cn(Cc3c(Cl)cccc3OC)c(N)n2)cc1 [Example 32, 1-(2-Chloro-6-methoxybenzyl)-4-(4-methoxyphenyl)-1H-imidazole-2-ylamine]",< 0.6 µM
9,"COc1cccc(F)c1Cn1cc(-c2ccc(C#N)cc2)nc1N [Example 33, 4-[2-Amino-1-(2-fluoro-6-methoxybenzyl)-1H-imidazole-4-yl]benzonitrile]",< 0.6 µM
10,"COc1cccc(Cl)c1Cn1cc(-c2ccc(Cl)cc2)nc1N [Example 34, 1-(2-Chloro-6-methoxybenzyl)-4-(4-chlorophenyl)-1H-imidazole-2-ylamine]",< 0.6 µM
11,"COc1ccccc1Cn1cc(-c2ccc(Cl)cc2Cl)nc1N [Example 35, 4-(2,4-Dichlorophenyl)-1-(2-methoxybenzyl)-1H-imidazole-2-ylamine hydrochloride]",< 0.6 µM
12,"COc1ccccc1Cn1cc(-c2ccc(C)o2)nc1N [Example 36, 1-(2-Methoxybenzyl)-4-(5-methylfuran-2-yl)-1H-imidazole-2-ylamine]",< 0.6 µM
13,"COc1cccc(Cl)c1Cn1cc(-c2cccs2)nc1N [Example 37, 1-(2-Chloro-6-methoxybenzyl)-4-thiophene-2-yl-1H-imidazole-2-ylamine]",< 0.6 µM
14,"COc1ccccc1Cn1cc(-c2ccc(C)s2)nc1N [Example 38, 1-(2-Methoxybenzyl)-4-(5-methylthiophene-2-yl)-1H-imidazole-2-ylamine]",< 0.6 µM
15,"COc1ccccc1Cn1cc(-c2ccc(C(C)C)cc2)nc1N [Example 39, 4-(4-Isopropylphenyl)-1-(2-methoxybenzyl)-1H-imidazole-2-ylamine]",< 0.6 µM
16,"COc1cccc(OC)c1Cn1cc(-c2ccc(C)c(C)c2)nc1N [Example 40, 1-(2,6-Dimethoxybenzyl)-4-(3,4-dimethylphenyl)-1H-imidazole-2-ylamine hydrochloride]",< 0.6 µM
17,"COc1ccccc1Cn1c(Cc2ccccc2)cnc1N [Example 41, 5-Benzyl-1-(2-methoxybenzyl)-1H-imidazole-2-ylamine]",< 0.6 µM
18,"COc1ccccc1Cn1cc(-c2cc3ccccc3o2)nc1N [Example 42, 4-Benzofuran-2-yl-1-(2-methoxybenzyl)-1H-imidazole-2-ylamine]",< 0.6 µM
19,"COc1ccccc1Cn1cc(-c2cccc3ccccc23)nc1N [Example 43, 1-(2-Methoxybenzyl)-4-naphthalene-1-yl-1H-imidazole-2-ylamine]",< 0.6 µM
20,"COc1ccccc1Cn1cc(-c2ccc(Oc3ccccc3)cc2)nc1N [Example 44, 1-(2-Methoxybenzyl)-4-(4-phenoxyphenyl)-1H-imidazole-2-ylamine hydrochloride]",< 0.6 µM
21,"COc1ccccc1Cn1cc(-c2cccc([N+](=O)[O-])c2)nc1N [Example 45, 1-(2-Methoxybenzyl)-4-(3-nitrophenyl)-1H-imidazole-2-ylamine]",< 0.6 µM
22,"COc1ccccc1Cn1cc(-c2ccc(OC(F)F)cc2)nc1N [Example 46, 4-(4-Difluoromethoxyphenyl)-1-(2-methoxybenzyl)-1H-imidazole-2-ylamine]",< 0.6 µM
23,"COc1ccccc1Cn1cc(-c2csc(-c3ccccc3)n2)nc1N [Example 47, 1-(2-Methoxybenzyl)-4-(2-phenylthiazole-4-yl)-1H-imidazole-2-ylamine]",< 0.6 µM
